Test results published in patent publication US12180170B1, “2-(5-(3-fluorophenyl)-4-phenyl-4H-1,2,4-triazol-3-ylthio)acetic acid as an antimicrobial compound” (KING FAISAL UNIVERSITY, priority 2023, dated 2024).

Assays:
Format in all cases: cell-based
[1] = system: Bacillus cereus; assay: Agar plate disc-diffusion, antibacterial inhibition zone; conditions: nutrient agar, 37° C., 48 h, DMSO control zone subtracted
Procedure: (§1) The agar plate disc-diffusion method was applied. […] The discs were then placed onto the surface of agar plates (nutrient agar for bacteria and Sabouraud's dextrose agar for fungi) seeded with the test organism. Each plate contained 15 mL of the agar medium, previously seeded with 0.2 mL of the broth culture of each organism pregrown for 18 h. The plates were incubated at 37° C. for 48 h, and 72 h for fungi. The inhibition zones was measured in mm. Discs impregnated with DMSO were used as a control, and its inhibition zone was subtracted from the tested compound actual inhibition zone.

[2] = system: Escherichia coli; assay: as above; conditions: nutrient agar, 37° C., 48 h, DMSO control zone subtracted
Procedure: as §1

[3] = system: Pseudomonas aeruginosa; assay: as above; conditions: nutrient agar, 37° C., 48 h, DMSO control zone subtracted
Procedure: as §1

[4] = system: Staphylococcus aureus; assay: as above; conditions: nutrient agar, 37° C., 48 h, DMSO control zone subtracted
Procedure: as §1

[5] = system: Aspergillus flavus; assay: Agar plate disc-diffusion, antifungal inhibition zone; conditions: Sabouraud's dextrose agar, 37° C., 72 h, DMSO control zone subtracted
Procedure: as §1

[6] = system: Chrysosporium keratinophilum; assay: as above; conditions: Sabouraud's dextrose agar, 37° C., 72 h, DMSO control zone subtracted
Procedure: as §1

[7] = A = concentration of comp. = 10,000 μL
[8] = B = concentration of comp. = 30,000 μL
[9] = C = concentration of comp. = 50,000 μL

With `O=C(O)CSc1nnc(-c2cccc(F)c2)n1-c1ccccc1` [III, 2-(5-(3-fluorophenyl)-4-phenyl-4H-1,2,4-triazol-3-ylthio)acetic acid] the “inhibition zone, Bacillus Cereus, A” value [1, 7] was 23 mm, the “inhibition zone, Bacillus Cereus, B” value [1, 8] was 27 mm and the “inhibition zone, Bacillus Cereus, C” value [1, 9] was 40 mm. The “inhibition zone, Escherichia coli, A” value ([2]; A =) was 22 mm, the “inhibition zone, Escherichia coli, B” value [2, 8] was 30 mm and the “inhibition zone, Escherichia coli, C” value [2, 9] was 49 mm. The “inhibition zone, Pseudomonas aeruginosa, A” value [3, 7] was 25 mm, the “inhibition zone, Pseudomonas aeruginosa, B” value [3, 8] was 27 mm and the “inhibition zone, Pseudomonas aeruginosa, C” value [3, 9] was 46 mm. The “inhibition zone, Staphylococcus aureus, A” value [4, 7] was 15 mm, the “inhibition zone, Staphylococcus aureus, B” value [4, 8] was 20 mm and the “inhibition zone, Staphylococcus aureus, C” value [4, 9] was 24 mm. The “inhibition zone, Aspergillus flavus, A” value [5, 7] was 20 mm, the “inhibition zone, Aspergillus flavus, B” value [5, 8] was 27 mm and the “inhibition zone, Aspergillus flavus, C” value [5, 9] was 36 mm. The “inhibition zone, Chrysosporium keratinophilum, A” value [6, 7] was 24 mm, the “inhibition zone, Chrysosporium keratinophilum, B” value [6, 8] was 27 mm and the “inhibition zone, Chrysosporium keratinophilum, C” value [6, 9] was 44 mm.
